The values below come from PubChem BioAssay (NCI).

Structures are written as SMILES.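 Assay format: 96-well plates, 48-hour exposure. The concentration for 50% growth inhibition is given as GI50. At the TGI there is no net growth.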 Where only a bound is given, the exact number is not on record here.

Among the test systems are DU-145 prostate; SF-268 CNS; SF-295 CNS; NCI-H226 lung; SNB-75 CNS; 786-0 renal; UO-31 renal; HCT-116 colon; SK-MEL-5 melanoma; RPMI-8226 leukemia.
Test in all cases: growth of human tumour cells (NCI), 48 h

As for `S=C(Nc1ccc(Cl)cc1)Nc1ccc(-c2nc3ccccc3[nH]2)cc1`, the GI50 is 12.1 µM in the experiment with DU-145 prostate; 12.2 µM with SF-268 CNS; 0.757 µM in the experiment on SF-295 CNS; 10 µM in the experiment on NCI-H226 lung; 15.7 µM in the experiment with SNB-75 CNS; 10.2 µM in the experiment with 786-0 renal. Besides, the GI50 in the experiment on UO-31 renal was 5.86 µM; in the experiment on HCT-116 colon, 12.3 µM; in the experiment on SK-MEL-5 melanoma, 6.37 µM; in the experiment on RPMI-8226 leukemia it was 2.23 µM. In addition, the TGI in the experiment with SF-268 CNS is over 68.7 µM; in the experiment on SF-295 CNS it was 4.24 µM; in the experiment with NCI-H226 lung, over 46.6 µM; with SNB-75 CNS, over 55 µM; with 786-0 renal it was 22.8 µM; in the experiment on UO-31 renal, over 29.4 µM. In addition, the TGI in the experiment on HCT-116 colon is 24.7 µM; in the experiment on SK-MEL-5 melanoma, 23.2 µM; in the experiment with RPMI-8226 leukemia it was over 21.2 µM.
With `C[C@]12CCC(=O)C(O)=C1CC[C@@H]1[C@@H]2CC[C@]2(C)C(=O)CC[C@@H]12`, the TGI with DU-145 prostate, with SF-268 CNS, in the experiment on SF-295 CNS, in the experiment with NCI-H226 lung, with SNB-75 CNS and in the experiment on 786-0 renal was over 100 µM each time. For the same compound, the TGI in the experiment with UO-31 renal, with HCT-116 colon, in the experiment with SK-MEL-5 melanoma and with RPMI-8226 leukemia was over 100 µM each time.
Take `CC(NNC(=S)N1CCCCCC1)c1ccc2ccccc2n1` (centres undefined): the GI50 was 2.22 µM in the experiment with DU-145 prostate; 1.72 µM in the experiment on SF-268 CNS; 0.843 µM in the experiment with SF-295 CNS; 2.74 µM in the experiment with NCI-H226 lung; 12.5 µM with SNB-75 CNS; 3.38 µM with 786-0 renal. In addition, the GI50 was 0.478 µM with UO-31 renal, 0.688 µM in the experiment on HCT-116 colon, 1.95 µM with SK-MEL-5 melanoma and 5.36 µM in the experiment on RPMI-8226 leukemia. The TGI came out at 18.2 µM with DU-145 prostate; 43.7 µM in the experiment on SF-268 CNS; 13.2 µM with SF-295 CNS; 23.2 µM in the experiment with NCI-H226 lung; 27.5 µM in the experiment on SNB-75 CNS; 16.8 µM with 786-0 renal. The TGI was 14.1 µM in the experiment on UO-31 renal, 17.8 µM in the experiment on HCT-116 colon, 14.8 µM in the experiment with SK-MEL-5 melanoma and over 100 µM in the experiment on RPMI-8226 leukemia.
With `Cc1ccc2c(N)c(C(=O)N[C@H]3CCc4cc(N5CC6CCC(C5)N6)ccc4C3)sc2n1`, the GI50 is 0.165 µM in the experiment on DU-145 prostate; 0.42 µM with SF-268 CNS; 0.509 µM with SF-295 CNS; 0.452 µM in the experiment with NCI-H226 lung; 0.355 µM with SNB-75 CNS; 0.497 µM with 786-0 renal. Also, the GI50 was 0.577 µM with UO-31 renal, 0.251 µM in the experiment on HCT-116 colon, 0.569 µM in the experiment on SK-MEL-5 melanoma and 0.764 µM in the experiment on RPMI-8226 leukemia. Also, the TGI is 1.48 µM with DU-145 prostate; 2.51 µM in the experiment on SF-268 CNS; 2.59 µM in the experiment on SF-295 CNS; 2.58 µM in the experiment with NCI-H226 lung; 2.83 µM in the experiment on SNB-75 CNS; 3.86 µM in the experiment on 786-0 renal. Also, the TGI in the experiment with UO-31 renal was determined as 3.24 µM; in the experiment with HCT-116 colon it was 3.44 µM; with SK-MEL-5 melanoma, 1.9 µM; in the experiment on RPMI-8226 leukemia, 3.42 µM.
For `Cc1ccc2c(=O)c3cccc(CC(=O)O)c3oc2c1C`, the GI50 in the experiment with DU-145 prostate, in the experiment with SF-268 CNS, in the experiment on SF-295 CNS, in the experiment on NCI-H226 lung, in the experiment with SNB-75 CNS and with 786-0 renal was over 100 µM throughout. Further, the GI50 with UO-31 renal, in the experiment with HCT-116 colon, with SK-MEL-5 melanoma and in the experiment with RPMI-8226 leukemia was over 100 µM in each case. Moreover, the TGI in the experiment with DU-145 prostate, in the experiment on SF-268 CNS, in the experiment on SF-295 CNS, in the experiment with NCI-H226 lung, in the experiment with SNB-75 CNS and with 786-0 renal was over 100 µM throughout. Further, the TGI with UO-31 renal, with HCT-116 colon, in the experiment on SK-MEL-5 melanoma and in the experiment on RPMI-8226 leukemia was over 100 µM throughout.
As to `CCOC(=O)Oc1c(OC)cc(C(=O)O[C@@H]2C[C@@H]3CN4CCc5c([nH]c6cc(OC)ccc56)[C@H]4C[C@@H]3[C@H](C(=O)OC)[C@H]2OC)cc1OC`, the GI50 in the experiment with DU-145 prostate was 13.5 µM; with SF-268 CNS it was 8.07 µM; in the experiment on SF-295 CNS, 10.2 µM; with NCI-H226 lung, 15.1 µM; in the experiment with SNB-75 CNS it was 6.64 µM; in the experiment with 786-0 renal, 9.62 µM. For the same compound, the GI50 in the experiment on UO-31 renal is 5.18 µM; in the experiment with HCT-116 colon, 1.73 µM; in the experiment with SK-MEL-5 melanoma, 7.86 µM; in the experiment on RPMI-8226 leukemia, 2.23 µM. Moreover, the TGI amounted to 95.8 µM with DU-145 prostate; 27.5 µM in the experiment with SF-268 CNS; 31.4 µM in the experiment with SF-295 CNS; 58.1 µM in the experiment with NCI-H226 lung; 24.5 µM in the experiment on SNB-75 CNS; 25.3 µM with 786-0 renal. The TGI with UO-31 renal is over 100 µM; in the experiment on HCT-116 colon, 3.58 µM; with SK-MEL-5 melanoma, 20.7 µM; with RPMI-8226 leukemia, 10.8 µM.
For the compound `C=C1C(=O)O[C@H]2[C@H]1CC/C(Cn1cc(-c3ccccc3)nn1)=C\CC[C@@]1(C)O[C@@H]21`, the GI50 is 2.19 µM in the experiment with DU-145 prostate; 5.63 µM with SF-268 CNS; 7.88 µM with SF-295 CNS; 4.6 µM in the experiment on NCI-H226 lung; 6.21 µM in the experiment on SNB-75 CNS; 2.63 µM in the experiment on 786-0 renal. In addition, the GI50 was 0.87 µM in the experiment on UO-31 renal, 1.17 µM in the experiment with HCT-116 colon, 7.32 µM in the experiment with SK-MEL-5 melanoma and 1.71 µM with RPMI-8226 leukemia. The TGI with DU-145 prostate amounted to 7.92 µM; in the experiment on SF-268 CNS, 13.4 µM; with SF-295 CNS it was 15.4 µM; in the experiment with NCI-H226 lung it was 11.2 µM; with SNB-75 CNS it was 13 µM; with 786-0 renal it was 8.79 µM. Besides, the TGI in the experiment with UO-31 renal was determined as 1.96 µM; in the experiment with HCT-116 colon it was 2.7 µM; with SK-MEL-5 melanoma, 13.9 µM; in the experiment on RPMI-8226 leukemia, 11.1 µM.
Consider `COc1ccc(-c2nc(-c3cn(C)c4ncccc34)cs2)cc1`, for which the GI50 in the experiment on DU-145 prostate is over 100 µM; with SF-268 CNS, 82.6 µM; in the experiment on SF-295 CNS, 20.3 µM; with NCI-H226 lung, over 100 µM; in the experiment with SNB-75 CNS, over 100 µM; with 786-0 renal, 51.5 µM. The GI50 in the experiment with UO-31 renal was over 100 µM; in the experiment with HCT-116 colon, 38.4 µM; with SK-MEL-5 melanoma, 16.9 µM; in the experiment with RPMI-8226 leukemia, 37.1 µM. The TGI in the experiment with DU-145 prostate, in the experiment with SF-268 CNS, with SF-295 CNS, in the experiment on NCI-H226 lung, with SNB-75 CNS and with 786-0 renal was over 100 µM each time. Further, the TGI in the experiment on UO-31 renal, in the experiment on HCT-116 colon, in the experiment with SK-MEL-5 melanoma and in the experiment on RPMI-8226 leukemia was over 100 µM in each case.
